pIC50: −log10 of the molar value. Like-named read-outs stand apart in the source and are kept apart here.
How the values were obtained:
[1] = test system: PRC2-mediated histone H3 Lys27 trimethylation in Pfeiffer cells (EZH2 A677G); experiment: Tri-Methyl Histone H3 (Lys 27) sandwich ELISA in Pfeiffer cells; type: cell-based, human; conditions: 96 hours incubation, read-out: IC50 (nM), Inhibition of EZH2-mediated Histone H3 Trimethylation
Excerpt: The Pfeiffer cell line was established from a […] from a patient having metastatic diffuse large B-cell lymphoma (DLBCL). This cell line expresses a mutant form of the EZH2 enzyme (A677G) that results in enhanced EZH2 activity leading to increased methylation of histone H3 Lys27. Increased trimethylation of histone H3 Lys27 is believed to be implicated in tumorgenesis and poor clinical prognosis in lymphomas (McCabe et al., (2012) Nature 492:108-112).
Inhibition of PRC2-mediated histone H3 methylation by compounds of Formula (I) was measured by ELISA using a Tri-Methyl Histone H3 (Lys 27) Sandwich ELISA Kit (Cell Signaling Tech #7866C) in accordance with the manufacturer's instructions. Briefly, Pfeiffer cells were cultured in RPMI medium supplemented with 10% fetal bovine serum and 1% penicillin and 1% streptomycin in 96 well culture plates at 37° C. to a density of 8000 cells/90 μl/well and the cells were harvested. A series of 3-fold serial dilutions of each test compound of Formula (I) were prepared in RPMI medium and added to the cells at final concentrations ranging from 1 μM to 0.15 nM. The plates were incubated at 37° C. for 96 hours.
After incubation, the cells were pelleted by centrifugation in a pre-cooled 4° C. rotor at 1,100 rpm for 10 min and the supernatant was removed by aspiration. The cell pellet was resuspended in 55 μl of Lysis Buffer (0.4M HCl) and incubated on ice with periodic shaking for 30 minutes. The lysed cells were subjected to centrifugation at 4,200 rpm for 10 min at 4° C. and the supernatant containing acid-soluble proteins was collected and the remainder discarded. The acid-soluble proteins were brought to a neutral pH by the addition of 20 μl of Neutralization Buffer (1 M Sodium phosphate, dibasic (pH 12.5), 2.5 mM DTT and 1 mM PMSF) and the neutralized lysates were analyzed by ELISA.
A 65 μl aliquot of each cell lysate was added to a well of a microwell strip, the microwells were sealed using tape and incubated either at 37° C. for two hours or at 4° C. overnight. After incubation, the tape was removed at the microwells were washed four times using 200 μl of 1× Wash Buffer. To each washed microwell, a 100 μl aliquot of an anti-trimethyl histone H3 Lys27 Detection Antibody solution was added and the microwells were incubated at 37° C. for one hour. […]
A 100 μl aliquot of an HRP-linked secondary antibody was added to each well, the wells were sealed with tape and incubated at 37° C. for 30 min. […] The degree of histone H3 trimethylation was determined using a spectrophotometric readout by measuring the absorbance at 450 nm and then calculating the amount of trimethylated histone H3. A=≤100 nM; B=>100 nM-≤500 nM; C=>500 nM and N.D.=not determined.

[2] = test system: Karpas 422 cells (EZH2 Y641N); experiment: Karpas 422 cell viability (Cell Titre Glo); type: cell-based, human; conditions: Day 4, Day 7 or Day 11 (time point not given), read-out: IC50 (nM), Inhibiting Proliferation of Cells Expressing an Activating Mutant Form of EZH2
Method: Karpas 422 cell line is a human B cell non-Hodgkin's lymphoma cell line established from a patient having DLBCL. This EZH2 heterozygotic cell line expresses a mutant form of EZH2 enzyme (Y641N) that increases histone H3 methylation and this mutation has been implicated in the tumorgenesis of lymphomas, such as DLBCL.
Karpas 422 cells (PHE cat no.,06101702) were cultured in RPMI medium supplemented with 20% fetal bovine serum and 1% penicillin/1% streptomycin and plated at a density of 1000 cells/90 μl/well in 96 well white assay plates. A dose response curve for compounds of the present invention was determined by adding a 10 μl aliquot of stock solutions of varying concentrations of compounds to the same medium in each well, over a concentration range of 10 μM using 3-fold dilutions to a final concentration of 1.5 nM. The plates were incubated at 37° C. for predetermined time periods, Day 4, Day 7, or Day 11, and the viability of the cells was measured using a CTG assay kit (Cell Titre Glo; Promega cat. no G7573) on Day 4 and Day 7 in accordance with the manufacturer's instructions.
For the viability assay for the Day 11 plates, the plates were subjected to centrifugation at 1100 rpm for five minutes on Day 7 and the supernatant was removed by aspiration. The cells were resuspended in 90 μl aliquot of the appropriate growth medium lacking the compound followed by addition of 10 μl of a 10× stock of the same compound at the same concentration. The viability of the Day 11 cells was measured using the CTG assay kit described above in accordance with the manufacturer's instructions. The IC50 values for each compound at each predetermined time point were calculated using Graph pad PRISM software and the results are shown in Table 15. A=≤250 nM; B=<250 nM-≤500 nM; and C=>500 nM.

[3] = target: purified human, His-tagged PRC2 complex (Homo sapiens (Human), UniProt O75530); experiment: Hot Spot HMT assay of PRC2 enzymatic activity; type: biochemical; conditions: 10 nM PRC2 complex, core histone H3, 1 uM 3H-SAM, 1 hr at 30° C; read-out: IC50, Inhibition of PRC2-mediated Enzymatic Activity
Sequence of purified human, His-tagged PRC2 complex (Q15910 whole entry): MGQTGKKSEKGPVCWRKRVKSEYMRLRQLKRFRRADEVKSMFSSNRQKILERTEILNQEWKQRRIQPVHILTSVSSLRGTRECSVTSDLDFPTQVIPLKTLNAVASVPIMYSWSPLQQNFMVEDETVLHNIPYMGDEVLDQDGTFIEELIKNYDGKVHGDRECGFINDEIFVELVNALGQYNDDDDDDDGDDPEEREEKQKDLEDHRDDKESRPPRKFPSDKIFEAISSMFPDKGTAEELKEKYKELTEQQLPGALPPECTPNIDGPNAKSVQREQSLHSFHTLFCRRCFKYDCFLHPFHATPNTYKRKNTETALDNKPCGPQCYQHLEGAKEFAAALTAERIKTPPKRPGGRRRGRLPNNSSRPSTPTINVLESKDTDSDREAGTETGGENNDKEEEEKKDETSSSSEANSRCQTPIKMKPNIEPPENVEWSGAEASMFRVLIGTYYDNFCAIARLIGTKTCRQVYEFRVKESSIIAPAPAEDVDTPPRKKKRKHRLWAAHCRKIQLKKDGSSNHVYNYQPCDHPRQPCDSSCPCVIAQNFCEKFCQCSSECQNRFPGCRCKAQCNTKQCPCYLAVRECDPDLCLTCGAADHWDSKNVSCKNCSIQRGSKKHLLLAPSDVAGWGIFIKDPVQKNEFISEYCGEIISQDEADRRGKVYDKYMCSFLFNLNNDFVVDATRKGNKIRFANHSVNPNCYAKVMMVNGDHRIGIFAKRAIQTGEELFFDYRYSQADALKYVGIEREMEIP
Sequence of purified human, His-tagged PRC2 complex (O75530 whole entry): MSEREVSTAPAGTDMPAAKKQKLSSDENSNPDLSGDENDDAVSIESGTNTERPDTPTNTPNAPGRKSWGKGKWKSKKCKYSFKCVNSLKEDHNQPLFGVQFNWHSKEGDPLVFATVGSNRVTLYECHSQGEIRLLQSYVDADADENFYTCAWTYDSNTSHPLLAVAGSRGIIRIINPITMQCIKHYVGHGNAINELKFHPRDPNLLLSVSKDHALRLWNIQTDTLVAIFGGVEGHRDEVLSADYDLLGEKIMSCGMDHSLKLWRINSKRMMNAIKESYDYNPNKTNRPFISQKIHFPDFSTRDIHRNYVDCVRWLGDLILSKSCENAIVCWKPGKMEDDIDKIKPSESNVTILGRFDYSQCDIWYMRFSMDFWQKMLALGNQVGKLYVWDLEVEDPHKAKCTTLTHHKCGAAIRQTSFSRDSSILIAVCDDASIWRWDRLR
Sequence of purified human, His-tagged PRC2 complex (Q15022 whole entry partner): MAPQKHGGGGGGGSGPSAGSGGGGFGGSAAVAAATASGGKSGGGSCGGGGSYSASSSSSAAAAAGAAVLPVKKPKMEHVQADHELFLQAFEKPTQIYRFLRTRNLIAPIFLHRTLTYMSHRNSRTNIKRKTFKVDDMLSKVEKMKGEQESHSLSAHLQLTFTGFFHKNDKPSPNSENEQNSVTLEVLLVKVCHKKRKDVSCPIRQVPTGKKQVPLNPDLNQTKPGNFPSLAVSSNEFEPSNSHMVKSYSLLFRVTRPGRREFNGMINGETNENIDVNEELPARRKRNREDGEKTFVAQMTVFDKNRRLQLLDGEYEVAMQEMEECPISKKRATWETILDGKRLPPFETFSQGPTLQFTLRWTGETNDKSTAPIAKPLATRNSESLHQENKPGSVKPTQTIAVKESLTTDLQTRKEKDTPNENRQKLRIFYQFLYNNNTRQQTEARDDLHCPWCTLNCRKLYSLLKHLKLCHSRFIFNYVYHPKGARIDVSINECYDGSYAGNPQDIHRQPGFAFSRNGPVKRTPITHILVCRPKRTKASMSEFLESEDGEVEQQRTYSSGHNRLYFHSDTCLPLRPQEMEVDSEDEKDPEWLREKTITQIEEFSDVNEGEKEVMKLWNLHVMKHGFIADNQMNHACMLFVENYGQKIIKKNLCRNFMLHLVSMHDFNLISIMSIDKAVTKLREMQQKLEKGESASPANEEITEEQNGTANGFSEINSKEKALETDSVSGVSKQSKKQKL
Sequence of purified human, His-tagged PRC2 complex (Q6ZN18 whole entry partner): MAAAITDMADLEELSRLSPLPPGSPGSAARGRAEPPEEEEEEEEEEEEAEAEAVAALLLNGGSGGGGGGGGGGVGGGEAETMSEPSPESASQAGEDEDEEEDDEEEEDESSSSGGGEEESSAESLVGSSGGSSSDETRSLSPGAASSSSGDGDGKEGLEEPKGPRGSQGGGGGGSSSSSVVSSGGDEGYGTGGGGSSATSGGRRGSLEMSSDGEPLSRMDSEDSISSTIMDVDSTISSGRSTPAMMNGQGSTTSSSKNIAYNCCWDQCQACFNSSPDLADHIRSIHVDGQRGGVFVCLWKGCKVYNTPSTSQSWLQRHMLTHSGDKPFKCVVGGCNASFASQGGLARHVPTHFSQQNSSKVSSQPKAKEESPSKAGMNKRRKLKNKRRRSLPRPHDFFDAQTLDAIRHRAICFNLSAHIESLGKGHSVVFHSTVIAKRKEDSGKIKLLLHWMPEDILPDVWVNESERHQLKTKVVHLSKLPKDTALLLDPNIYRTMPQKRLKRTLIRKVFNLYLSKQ
Sequence of purified human, His-tagged PRC2 complex (Q09028 whole entry partner): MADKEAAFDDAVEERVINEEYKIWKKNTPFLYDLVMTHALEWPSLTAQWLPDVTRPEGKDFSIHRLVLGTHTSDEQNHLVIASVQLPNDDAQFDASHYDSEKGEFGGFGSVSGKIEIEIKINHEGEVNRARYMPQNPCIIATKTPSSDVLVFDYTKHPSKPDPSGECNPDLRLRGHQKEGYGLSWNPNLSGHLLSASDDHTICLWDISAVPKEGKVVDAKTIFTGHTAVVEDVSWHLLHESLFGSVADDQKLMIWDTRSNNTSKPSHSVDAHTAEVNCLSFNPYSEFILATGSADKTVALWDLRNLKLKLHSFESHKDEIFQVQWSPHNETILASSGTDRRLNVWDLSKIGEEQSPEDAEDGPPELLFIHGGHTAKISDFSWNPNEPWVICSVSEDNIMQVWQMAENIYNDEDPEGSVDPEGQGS

IC50 ([1]; Homo sapiens) [nM]	IC50 ([2]; Homo sapiens) [nM]	pIC50 [3]	IC50 [1] [nM]	IC50 [2] [nM]	Compound
100 to 500	≤ 250				Cc1nc(N2CCOCC2)ccc1-c1cnc(NCc2c(F)ccc3c2CCO3)n2cc(C#N)nc12 [Example 56]
< 100	≤ 250	> 7.00			N#Cc1cn2c(NCc3c(F)ccc4c3CCO4)ncc(-c3cnc(C4CC4)cn3)c2n1 [Example 70]
			100 to 500	250 to 500	N#Cc1cn2c(NCc3c(F)ccc4c3CCO4)ncc(-c3cnn(CC4CCOC4)c3)c2n1 (stereo not drawn) [compound 154]

Compound	IC50 ([1]; Homo sapiens) [nM]	IC50 ([2]; Homo sapiens) [nM]	pIC50 [3]	IC50 [1] [nM]	IC50 [2] [nM]
CN1CCC1c1ccc(-c2cnc(NCc3c(F)ccc4c3CCO4)n3cc(C#N)nc23)cc1 (stereo not drawn) [Example 221]	100 to 500	≤ 250			

Source: US11091495B2, “Substituted imidazo[1,2-c]pyrimidines as PRC2 inhibitors” (Mirati Therapeutics, Inc., priority 2018, dated 2021)
